Test results reported in patent publication US9416126B2, “Compounds inhibiting leucine-rich repeat kinase enzyme activity” (Merck Sharp & Dohme Corp., priority 2013, dated 2016).

Biological target: LRRK2(G2019S mutation, GST-LRRK2(amino acids 970-2527)) (Homo sapiens (Human), UniProt Q5S007, G2019S)
Test: LRRK2 Km ATP LanthaScreen Assay
Assay type: biochemical
How it was run: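 TR-FRET: GST-LRRK2 970-2527 G2019S (2.5 nM solution) preincubated 30 min with compound (98 μM top, 1:2.15 dilutions), then 800 nM fluorescein-LRRKtide and 184 μM ATP solution added for 60 min at room temperature in Tris pH 8.5 buffer. Stopped with EDTA and Tb anti-phospho-LRRKtide antibody; IC50 is a mean of several tests.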

[1] = Km ATP (184 μM ATP solution), G2019S LRRK2, mean IC50

Sequence of LRRK2(G2019S mutation, GST-LRRK2(amino acids 970-2527)) (Q5S007 970-2527 G2019S): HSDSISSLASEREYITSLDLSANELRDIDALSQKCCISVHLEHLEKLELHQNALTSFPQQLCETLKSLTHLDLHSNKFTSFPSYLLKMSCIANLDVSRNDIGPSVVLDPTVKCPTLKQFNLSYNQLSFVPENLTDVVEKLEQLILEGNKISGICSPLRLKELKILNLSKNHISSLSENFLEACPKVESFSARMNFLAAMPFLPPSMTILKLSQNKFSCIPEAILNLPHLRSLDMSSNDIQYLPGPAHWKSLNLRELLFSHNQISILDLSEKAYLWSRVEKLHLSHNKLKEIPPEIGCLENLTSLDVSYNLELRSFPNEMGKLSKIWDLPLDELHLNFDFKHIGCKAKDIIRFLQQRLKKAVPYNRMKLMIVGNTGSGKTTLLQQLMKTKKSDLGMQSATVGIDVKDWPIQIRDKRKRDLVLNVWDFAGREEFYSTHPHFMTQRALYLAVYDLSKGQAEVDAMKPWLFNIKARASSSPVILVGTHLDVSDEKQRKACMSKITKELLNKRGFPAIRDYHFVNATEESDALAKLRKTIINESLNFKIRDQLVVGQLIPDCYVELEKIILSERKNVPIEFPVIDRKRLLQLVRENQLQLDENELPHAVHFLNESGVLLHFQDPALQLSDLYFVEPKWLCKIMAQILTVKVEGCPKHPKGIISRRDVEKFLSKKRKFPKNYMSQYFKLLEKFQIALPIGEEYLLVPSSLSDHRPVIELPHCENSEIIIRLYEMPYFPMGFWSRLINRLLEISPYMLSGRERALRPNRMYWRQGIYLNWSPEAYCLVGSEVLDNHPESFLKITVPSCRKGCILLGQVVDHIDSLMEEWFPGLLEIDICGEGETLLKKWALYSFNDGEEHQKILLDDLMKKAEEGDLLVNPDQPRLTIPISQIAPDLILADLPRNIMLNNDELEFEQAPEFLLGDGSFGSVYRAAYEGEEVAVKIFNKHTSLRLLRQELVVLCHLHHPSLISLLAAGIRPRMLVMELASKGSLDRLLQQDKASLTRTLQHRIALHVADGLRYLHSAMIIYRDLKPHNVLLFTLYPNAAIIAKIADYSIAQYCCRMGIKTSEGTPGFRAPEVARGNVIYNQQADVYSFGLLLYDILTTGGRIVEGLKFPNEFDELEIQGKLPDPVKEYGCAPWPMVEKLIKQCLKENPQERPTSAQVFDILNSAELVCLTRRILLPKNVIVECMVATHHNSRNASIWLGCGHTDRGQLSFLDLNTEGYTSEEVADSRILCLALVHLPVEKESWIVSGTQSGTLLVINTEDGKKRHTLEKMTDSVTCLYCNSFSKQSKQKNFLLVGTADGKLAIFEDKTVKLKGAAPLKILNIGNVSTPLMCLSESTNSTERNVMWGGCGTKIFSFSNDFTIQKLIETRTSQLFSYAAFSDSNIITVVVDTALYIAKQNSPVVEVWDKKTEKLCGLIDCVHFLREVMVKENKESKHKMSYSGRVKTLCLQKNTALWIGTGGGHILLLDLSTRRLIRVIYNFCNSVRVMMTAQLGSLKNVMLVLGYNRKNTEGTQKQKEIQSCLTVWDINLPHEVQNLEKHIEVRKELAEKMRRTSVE

## N#Cc1cc(-c2ccc3[nH]nc(-c4cc(N5CCOCC5)ncn4)c3c2)ccn1 [Example P1]
Examples P1-P18
  IC50: 340 nM

## c1nc(-c2n[nH]c3ccc(-c4ccc5ncnn5c4)cc23)cc(N2CCOCC2)n1 [Example P2]
Examples P1-P18
  IC50: 193 nM

## c1cc(-c2ccc3[nH]nc(-c4cc(N5CCOCC5)ncn4)c3c2)ccn1 [Example P3]
Examples P1-P18
  IC50: 96.7 nM

## Cc1noc(C)c1-c1ccc2[nH]nc(-c3cc(N4CCOCC4)ncn3)c2c1 [Example P4]
Examples P1-P18
  IC50: 48.7 nM

## c1ncc(-c2ccc3[nH]nc(-c4cc(N5CCOCC5)ncn4)c3c2)cn1 [Example P5]
Examples P1-P18
  IC50: 40.7 nM

## N#Cc1ccc(-c2ccc3[nH]nc(-c4cc(N5CCOCC5)ncn4)c3c2)cc1 [Example P6]
Examples P1-P18
  IC50: 150 nM

## N#Cc1cccc(-c2ccc3[nH]nc(-c4cc(N5CCOCC5)ncn4)c3c2)c1 [Example P7]
Examples P1-P18
  IC50: 81.3 nM

## CCN(CC)C(=O)c1ccc(-c2ccc3[nH]nc(-c4cc(N5CCOCC5)ncn4)c3c2)cc1 [Example P8]
Examples P1-P18
  IC50: 608 nM

## O=S(=O)(c1ccc(-c2ccc3[nH]nc(-c4cc(N5CCOCC5)ncn4)c3c2)cc1)N1CCCC1 [Example P9]
Examples P1-P18
  IC50: 914 nM

## COc1cnc(-c2ccc3[nH]nc(-c4cc(N5CCOCC5)ncn4)c3c2)cn1 [Example P10]
Examples P1-P18
  IC50: 272 nM

## COc1cncc(-c2ccc3[nH]nc(-c4cc(N5CCOCC5)ncn4)c3c2)n1 [Example P11]
Examples P1-P18
  IC50: 18.3 nM

## c1nc(-c2n[nH]c3ccc(-c4ccc5nncn5c4)cc23)cc(N2CCOCC2)n1 [Example P12]
Examples P1-P18
  IC50: 56.1 nM

## Cn1nccc1-c1ccc2[nH]nc(-c3cc(N4CCOCC4)ncn3)c2c1 [Example P13]
Examples P1-P18
  IC50: 45.7 nM

## COc1ncccc1-c1ccc2[nH]nc(-c3cc(N4CCOCC4)ncn3)c2c1 [Example P14]
Examples P1-P18
  IC50: 37.7 nM

## Cc1nocc1-c1ccc2[nH]nc(-c3cc(N4CCOCC4)ncn3)c2c1 [Example P15]
Examples P1-P18
  IC50: 59 nM

## COCCn1cc(-c2ccc3[nH]nc(-c4cc(N5CCOCC5)ncn4)c3c2)cn1 [Example P16]
Examples P1-P18
  IC50: 1.5 nM

## COc1ccc(-c2ccc3[nH]nc(-c4cc(N5CCOCC5)ncn4)c3c2)cn1 [Example P17]
Examples P1-P18
  IC50: 31.2 nM

## O=C(NCCO)c1ccc(-c2ccc3[nH]nc(-c4cc(N5CCOCC5)ncn4)c3c2)cc1 [Example P18]
Examples P1-P18
  IC50: 154 nM

## C[C@@H]1CN(c2cc(-c3n[nH]c4ccc(-c5ccc6ncnn6c5)cc34)ncn2)C[C@H](C)O1 [Example Q1]
Examples Q1-Q20
  IC50: 240 nM

## COc1ncccc1-c1ccc2[nH]nc(-c3cc(N4C[C@@H](C)O[C@@H](C)C4)ncn3)c2c1 [Example Q2]
Examples Q1-Q20
  IC50: 158 nM

## C[C@@H]1CN(c2cc(-c3n[nH]c4ccc(-c5ccnn5C)cc34)ncn2)C[C@H](C)O1 [Example Q3]
Examples Q1-Q20
  IC50: 32.1 nM

## Cc1cncc(-c2ccc3[nH]nc(-c4cc(N5C[C@@H](C)O[C@@H](C)C5)ncn4)c3c2)c1 [Example Q4]
Examples Q1-Q20
  IC50: 2.2 nM

## Cc1nocc1-c1ccc2[nH]nc(-c3cc(N4C[C@@H](C)O[C@@H](C)C4)ncn3)c2c1 [Example Q5]
Examples Q1-Q20
  IC50: 40 nM

## C[C@@H]1CN(c2cc(-c3n[nH]c4ccc(-c5ccncc5)cc34)ncn2)C[C@H](C)O1 [Example Q6]
Examples Q1-Q20
  IC50: 49.5 nM

## COc1cnc(-c2ccc3[nH]nc(-c4cc(N5C[C@@H](C)O[C@@H](C)C5)ncn4)c3c2)cn1 [Example Q7]
Examples Q1-Q20
  IC50: 63.4 nM

## C[C@@H]1CN(c2cc(-c3n[nH]c4ccc(-c5cncnc5)cc34)ncn2)C[C@H](C)O1 [Example Q8]
Examples Q1-Q20
  IC50: 30.3 nM

## COc1ccc(-c2ccc3[nH]nc(-c4cc(N5C[C@@H](C)O[C@@H](C)C5)ncn4)c3c2)cn1 [Example Q9]
Examples Q1-Q20
  IC50: 41.1 nM

## COc1cncc(-c2ccc3[nH]nc(-c4cc(N5C[C@@H](C)O[C@@H](C)C5)ncn4)c3c2)n1 [Example Q10]
Examples Q1-Q20
  IC50: 2.4 nM

## C[C@@H]1CN(c2cc(-c3n[nH]c4ccc(-c5ccnc(C#N)c5)cc34)ncn2)C[C@H](C)O1 [Example Q11]
Examples Q1-Q20
  IC50: 172 nM

## Cc1ncc(-c2ccc3[nH]nc(-c4cc(N5C[C@@H](C)O[C@@H](C)C5)ncn4)c3c2)nc1C [Example Q12]
Examples Q1-Q20
  IC50: 17.4 nM

## C[C@@H]1CN(c2cc(-c3n[nH]c4ccc(-c5cnc(N6CCCC6)s5)cc34)ncn2)C[C@H](C)O1 [Example Q13]
Examples Q1-Q20
  IC50: 7.6 nM

## COCCn1cc(-c2ccc3[nH]nc(-c4cc(N5C[C@@H](C)O[C@@H](C)C5)ncn4)c3c2)cn1 [Example Q14]
Examples Q1-Q20
  IC50: 1.8 nM

## COc1cc(-c2ccc3[nH]nc(-c4cc(N5C[C@@H](C)O[C@@H](C)C5)ncn4)c3c2)ccn1 [Example Q15]
Examples Q1-Q20
  IC50: 155 nM

## C[C@@H]1CN(c2cc(-c3n[nH]c4ccc(-c5ccc6nncn6c5)cc34)ncn2)C[C@H](C)O1 [Example Q16]
Examples Q1-Q20
  IC50: 60.6 nM

## C[C@@H]1CN(c2cc(-c3n[nH]c4ccc(-c5ccc(C(=O)NCCO)cc5)cc34)ncn2)C[C@H](C)O1 [Example Q17]
Examples Q1-Q20
  IC50: 77 nM

## C[C@@H]1CN(c2cc(-c3n[nH]c4ccc(-c5ccc(C#N)cc5)cc34)ncn2)C[C@H](C)O1 [Example Q18]
Examples Q1-Q20
  IC50: 177 nM

## C[C@@H]1CN(c2cc(-c3n[nH]c4ccc(-c5cccc(C#N)c5)cc34)ncn2)C[C@H](C)O1 [Example Q19]
Examples Q1-Q20
  IC50: 47.9 nM

## CCN(CC)C(=O)c1ccc(-c2ccc3[nH]nc(-c4cc(N5C[C@@H](C)O[C@@H](C)C5)ncn4)c3c2)cc1 [Example Q20]
Examples Q1-Q20
  IC50: 847 nM

## CC(C)=Cc1ccc2[nH]nc(-c3cc(N4CCO[C@H](C)C4)ncn3)c2c1 [Example S1]
[1]
  IC50: 16.4 nM

## CC(C)=Cc1ccc2[nH]nc(-c3cc(N4CCN(S(C)(=O)=O)CC4)ncn3)c2c1 [Example S2]
[1]
  IC50: 28.8 nM

## CC(C)=Cc1ccc2[nH]nc(-c3cc(N4CCN(C)CC4)ncn3)c2c1 [Example S3]
[1]
  IC50: 32.9 nM

## CC(C)=Cc1ccc2[nH]nc(-c3cc(N4CCN(C)C(=O)C4)ncn3)c2c1 [Example S4]
[1]
  IC50: 36.2 nM

## CC(C)=Cc1ccc2[nH]nc(-c3cc(N4C[C@@H](C)O[C@@H](C)C4)ncn3)c2c1 [Example S5]
[1]
  IC50: 20.3 nM

## c1cncc(-c2ccc3[nH]nc(-c4cc(N5CCOCC5)ncn4)c3c2)c1 [Example T1]
[1]
  IC50: 5.5 nM

## CS(=O)(=O)N1CCN(c2cc(-c3n[nH]c4ccc(-c5cccnc5)cc34)ncn2)CC1 [Example T2]
[1]
  IC50: 7.3 nM

## FC1(F)CCN(c2cc(-c3n[nH]c4ccc(-c5ccoc5)cc34)ncn2)CC1 [Example U1]
Table U
  IC50: 86.2 nM

## FC1(F)CCN(c2cc(-c3n[nH]c4ccc(-c5ccsc5)cc34)ncn2)CC1 [Example U2]
Table U
  IC50: 348 nM

## FC1(F)CCN(c2cc(-c3n[nH]c4ccc(C5=CCNCC5)cc34)ncn2)CC1 [Example U3]
Table U
  IC50: 120 nM

## COc1ccncc1-c1ccc2[nH]nc(-c3cc(N4CCC(F)(F)CC4)ncn3)c2c1 [Example U4]
Table U
  IC50: 6.66 nM

## CC1(C)CC(=O)C=C(c2ccc3[nH]nc(-c4cc(N5CCC(F)(F)CC5)ncn4)c3c2)C1 [Example U5]
Table U
  IC50: 7.08 nM

## FC1(F)CCN(c2cc(-c3n[nH]c4ccc(-c5cc[nH]n5)cc34)ncn2)CC1 [Example U6]
Table U
  IC50: 2.16 nM

## FC1(F)CCN(c2cc(-c3n[nH]c4ccc(-c5cn[nH]c5)cc34)ncn2)CC1 [Example U7]
Table U
  IC50: 5.69 nM

## c1nc(-c2n[nH]c3ccc(-c4ccoc4)cc23)cc(N2CCOCC2)n1 [Example U8]
Table U
  IC50: 19 nM

## c1nc(-c2n[nH]c3ccc(-c4ccsc4)cc23)cc(N2CCOCC2)n1 [Example U9]
Table U
  IC50: 36.4 nM

## Cc1ncc(-c2ccc3[nH]nc(-c4cc(N5CCOCC5)ncn4)c3c2)s1 [Example U10]
Table U
  IC50: 2.2 nM

## CC1(C)CC(=O)C=C(c2ccc3[nH]nc(-c4cc(N5CCOCC5)ncn4)c3c2)C1 [Example U11]
Table U
  IC50: 1.63 nM

## C1=C(c2ccc3[nH]nc(-c4cc(N5CCOCC5)ncn4)c3c2)CCNC1 [Example U12]
Table U
  IC50: 71.6 nM

## COc1ccncc1-c1ccc2[nH]nc(-c3cc(N4CCOCC4)ncn3)c2c1 [Example U13]
Table U
  IC50: 1.72 nM

## c1cc(-c2ccc3[nH]nc(-c4cc(N5CCOCC5)ncn4)c3c2)[nH]n1 [Example U14]
Table U
  IC50: 2.63 nM

## Cc1ccc(-c2ccc3[nH]nc(-c4cc(N5CCOCC5)ncn4)c3c2)cc1 [Example U15]
Table U
  IC50: 251 nM

## c1nc(-c2n[nH]c3ccc(-c4cn[nH]c4)cc23)cc(N2CCOCC2)n1 [Example U16]
Table U
  IC50: 2.3 nM

## O=C1C=C(c2ccc3[nH]nc(-c4cc(N5CCOCC5)ncn4)c3c2)CCC1 [Example U17]
Table U
  IC50: 1.63 nM

## Clc1cc(-c2ccc3[nH]nc(-c4cc(N5CCOCC5)ncn4)c3c2)ccn1 [Example U18]
Table U
  IC50: 266 nM

## Cc1n[nH]c(C)c1-c1ccc2[nH]nc(-c3cc(N4CCOCC4)ncn3)c2c1 [Example U19]
Table U
  IC50: 2.58 nM

## CC(C)N1CCN(c2cc(-c3n[nH]c4ccc(-c5cccs5)cc34)ncn2)CC1 [Example U21]
Table U
  IC50: 61.5 nM

## CC(C)N1CCN(c2cc(-c3n[nH]c4ccc(-c5ccoc5)cc34)ncn2)CC1 [Example U22]
Table U
  IC50: 9.03 nM

## COc1ccncc1-c1ccc2[nH]nc(-c3cc(N4CCN(C(C)C)CC4)ncn3)c2c1 [Example U23]
Table U
  IC50: 1.26 nM

## CC(C)N1CCN(c2cc(-c3n[nH]c4ccc(-c5cn[nH]c5)cc34)ncn2)CC1 [Example U24]
Table U
  IC50: 0.96 nM

## CC(C)N1CCN(c2cc(-c3n[nH]c4ccc(-c5ccn[nH]5)cc34)ncn2)CC1 [Example U25]
Table U
  IC50: 2.34 nM

## COc1ccncc1-c1ccc2[nH]nc(-c3cc(N4C[C@@H](C)O[C@@H](C)C4)ncn3)c2c1 [Example U26]
Table U
  IC50: 0.75 nM

## C[C@@H]1CN(c2cc(-c3n[nH]c4ccc(-c5cn[nH]c5)cc34)ncn2)C[C@H](C)O1 [Example U27]
Table U
  IC50: 1.35 nM

## C[C@@H]1CN(c2cc(-c3n[nH]c4ccc(-c5ccn[nH]5)cc34)ncn2)C[C@H](C)O1 [Example U28]
Table U
  IC50: 1.44 nM

## Cc1n[nH]c(C)c1-c1ccc2[nH]nc(-c3cc(N4CCO[C@H](C)C4)ncn3)c2c1 [Example U29]
Table U
  IC50: 3.2 nM

## FC1(F)CCN(c2cc(-c3n[nH]c4ccc(-c5cccnc5)cc34)ncn2)CC1 [U]
[1]
  IC50: 11.1 nM

## CC(C)Cc1ccc2[nH]nc(-c3cc(N4CCOCC4)ncn3)c2c1 [V]
[1]
  IC50: 56 nM
